# Measurements as given in patent US20260092246A1, “PLATFORM FOR ANTIMICROBIAL SUSCEPTIBILITY TESTING AND BACTERIAL IDENTIFICATION” (ASTRADX, INC., priority 2022, published 2026).
# Where two headings read alike, the source gives them in different places.
# Test system: E. coli
# Test: Antimicrobial susceptibility testing by dilution-temporal modeling (DTM) of growth in microwell plates with doubling dilutions of antibiotic
# Format: cell-based
# Conditions: Escherichia coli
# From the text: “Categorical agreement” is a term of art in AST that describes whether an organism is susceptible or resistant by each of two methods, typically a reference method and an investigative method. The reference method is broth microdilution and comes from the CLSI (M100).
# Each experiment involved a standard inoculum of bacteria grown at a concentration similar to what was recovered from the growth-detection step, which began with whole blood. The inoculum was automatically dispensed into the wells of a microwell plate. The wells contained doubling dilutions of standard antibiotics such as cefepime, meropenem, ciprofloxacin, and gentamicin (for gram-negative bacteria). A large number of wells enabled multiple replicates per condition, providing robustness to random dropouts or to growth variation.
# In each experiment, the growth and color of each well was monitored for growth by an automated imager. Serial images for each “bug-drug” combination were combined to create a unified picture of bacterial growth for each antibiotic, measure MICs, and determine any correction factors necessary to maximize S/I/R categorical agreement with reference MICs. […]
SMILES,"MIC (cefepime-resistant strain of E. coli, FIG. 6B, within a single doubling dilution of reference-method MIC, read-out: MIC by the disclosed method (concentration at which growth falls off)) [µg/mL]",MIC (read-out: MIC by the disclosed method (concentration at which fall in growth is visible)) [µg/mL]
CO/N=C(\C(=O)N[C@@H]1C(=O)N2C(C(=O)[O-])=C(C[N+]3(C)CCCC3)CS[C@H]12)c1csc(N)n1 [cefepime],16,–
C[C@@H](O)[C@H]1C(=O)N2C(C(=O)O)=C(S[C@@H]3CN[C@H](C(=O)N(C)C)C3)[C@H](C)[C@H]12 [meropenem],–,0.5
